Test results as given in patent US11242337B2, “Compounds useful for treating gastrointestinal tract disorders” (Ardelyx, Inc., priority 2017, dated 2022).
Like-named read-outs stand apart in the source and are kept apart here.

Tested on: human duodenum monolayer culture
Assay: Increased trans-epithelial resistance (TEER) in human organoid monolayer cell cultures
Format: cell-based
Conditions: 1 μM apical, baseline corrected
Procedure: Basal media (B consisted of advanced DMEM/F12 containing 10 mM HEPES (Invitrogen, 15630-080), 1:100 Glutamax (Invitrogen, 35050-061), and 1:100 penicillin/streptomycin (Invitrogen, 15140-122). Supplemented basal media (SBM) contained 1:100 N2 (Invitrogen, 17502-048), 1:50 B27 (Invitrogen, 12587-010), 1 mM N-acetylcysteine (Sigma, A9165), and 10 nM [Leu15]-gastrin I (Sigma, G9145). Growth factors used included 50 ng per mL mouse EGF (Peprotech, 315-09), 100 ng per mL mouse noggin (Peprotech, 250-38), 500 ng per mL human R-spondin 1 (R&D, 4645-RS), 100 ng per mL mouse Wnt-3a (R&D, 1324-WN), 20 μM Y-27632 (Tocris, 1254), 10 mM nicotinamide (Sigma, N0636), 500 nM A83-01 (Tocris, 2939), 10 μM SB202190 (Tocris, 1264). Transwells were 0.4 μm pore polyester membrane 24-well Transwell inserts (Corning). Cultures were incubated at 37° C. in 5% CO2.
Human duodenum organoids were cultured in WENRNAS (Wnt, EGF, noggin, R-spondin1, Nicotinamide, A83-01, SB202190) and typically grown for 7-12 days before being used to plate monolayer cultures. On day 0, organoid cultures embedded in Matrigel were treated with TrypLE Express to break organoids into small pieces and/or single cells. The cells were resuspended to 0.5×10^6 cells/mL in SBM containing WENRAY (Wnt, EGF, noggin, R-spondin1, A83-01, Y-27632). Following this step, 200 μL of cell suspension was plated into the apical side of a 24-well Transwell (100,000 cells/well) and 600 μL of SBM with WENRAY was added to the basolateral side. Duodenum cells were differentiated with ENA (EGF, noggin, A83-01) on day 3. The color of apical compartment turns from pink or orange to yellow due to the increase in NHE3 expression after differentiation.
Each human duodenum monolayer culture well was washed twice with fresh SBM on the apical side on day 6 or day 7 before dosing. All compound stocks were 10 mM dissolved DMSO. Each compound stock was individually mixed with fresh SBM to reach final compound concentration 1 μM and dosed only on the apical side of the monolayer (total volume 200 μl). DMSO at the equivalent concentration was used as the vehicle control. Duplicate wells were dosed for each compound. Transepithelial electrical resistance (TEER) was used as a quantitative technique to measure of tight junction permeability. TEER values were recorded (MERS00002, Millipore) before dosing and 30 mins and 1 hr after dosing for all wells. Each of the duplicate TEER values following treatment were corrected for the individual well baseline TEER. Baseline corrected TEER for each example compound was compared to the average of the DMSO wells and expressed as a percent TEER of vehicle control.

[1] = 1 hr after dosing, read-out: TEER at 60 minutes (% of Vehicle)
[2] = 0.5 h, 30 mins after dosing, read-out: TEER at 30 minutes (% of Vehicle)

| SMILES | activity at 1 µM [1] [%] | activity at 1 µM [2] [%] |
| --- | --- | --- |
| Cc1cc(S(=O)(=O)NCCOCCOCCNC(=O)NCCCCNC(=O)NCCOCCOCCNS(=O)(=O)c2ccc(O[C@H]3c4cc(Cl)cc(C#N)c4C[C@@H]3N3CCNCC3)c(C)c2)ccc1O[C@H]1c2cc(Cl)cc(C#N)c2C[C@@H]1N1CCNCC1 [Example 42, 3-[2-(2-[2-[(4-[[(1S,2S)-6-Chloro-4-cyano-2-(piperazin-1-yl)-2,3-dihydro-1H-inden-1-yl]oxy]-3-methylbenzene)sulfonamido]ethoxy]ethoxy)ethyl]-1-[4-([[2-(2-[2-[(4-[[(1S,2S)-6-chloro-4-cyano-2-(piperazin-1-yl)-2,3-dihydro-1H-inden-1-yl]oxy]-3-methylbenzene)sulfonamido]ethoxy]ethoxy)ethyl]carbamoyl]amino)butyl]urea; bis(trifluoroacetic acid)] | > 130 | 100 to 130 |
| Cc1cc(Cl)cc2c1C[C@H](N(C)C)[C@H]2Oc1ccc(S(=O)(=O)NCCOCCOCCNC(=O)NCCCCNC(=O)NCCOCCOCCNS(=O)(=O)c2ccc(O[C@H]3c4cc(Cl)cc(C)c4C[C@@H]3N(C)C)c(F)c2)cc1F [Example 24, 3-[2-(2-[2-[(4-[[(1S,2S)-6-Chloro-2-(dimethylamino)-4-methyl-2,3-dihydro-1H-inden-1-yl]oxy]-3-fluorobenzene)sulfonamido]ethoxy]ethoxy)ethyl]-1-[4-([[2-(2-[2-[(4-[[(1S,2S)-6-chloro-2-(dimethylamino)-4-methyl-2,3-dihydro-1H-inden-1-yl]oxy]-3-fluorobenzene)sulfonamido]ethoxy]ethoxy)ethyl]carbamoyl]amino)butyl]urea] | 100 to 130 | 100 to 130 |
| Cc1cc(Cl)cc2c1C[C@H](N1CCC[C@@H](N(C)C)C1)[C@H]2Oc1ccc(S(=O)(=O)NCCOCCOCCNC(=O)NCCCCNC(=O)NCCOCCOCCNS(=O)(=O)c2ccc(O[C@H]3c4cc(Cl)cc(C)c4C[C@@H]3N3CCC[C@@H](N(C)C)C3)c(F)c2)cc1F [Example 30, 3-[2-(2-[2-[(4-[[(1S,2S)-6-Chloro-2-[(3R)-3-(dimethylamino)piperidin-1-yl]-4-methyl-2,3-dihydro-1H-inden-1-yl]oxy]-3-fluorobenzene)sulfonamido]ethoxy]ethoxy)ethyl]-1-[4-([[2-(2-[2-[(4-[[(1S,2S)-6-chloro-2-[(3R)-3-(dimethylamino)piperidin-1-yl]-4-methyl-2,3-dihydro-1H-inden-1-yl]oxy]-3-fluorobenzene)sulfonamido]ethoxy]ethoxy)ethyl]carbamoyl]amino)butyl]urea; bis(trifluoroacetic acid)] | 100 to 130 | 100 to 130 |
| O=C(NCCCCNC(=O)NCCOCCN1CC[C@@H](NS(=O)(=O)c2ccc(O[C@H]3c4cc(Cl)cc(Cl)c4C[C@@H]3N3CCNCC3)c(F)c2)C1)NCCOCCN1CC[C@@H](NS(=O)(=O)c2ccc(O[C@H]3c4cc(Cl)cc(Cl)c4C[C@@H]3N3CCNCC3)c(F)c2)C1 [Example 105, 4-([(1S,2S)-4,6-Dichloro-2-(piperazin-1-yl)-2,3-dihydro-1H-inden-1-yl]oxy)-N—[(R)-1-(20-[(R)-3-([4-([(1S2S)-4,6-dichloro-2-(piperazin-1-yl)-2,3-dihydro-1H-inden-1-yl]oxy)-3-fluorophenyl]sulfonamido)pyrrolidin-1-yl]-7,14-dioxo-3,18-dioxa-6,8,13,15-tetraazaicosyl)pyrrolidin-3-yl]-3-fluorobenzenesulfonamide; tetra(trifluoroacetate)] | > 130 | > 130 |
| N#Cc1cc(Cl)cc2c1C[C@H](N1CCCNCC1)[C@H]2Oc1ccc(S(=O)(=O)N[C@H]2CCN(CCOCCNC(=O)NCCCCNC(=O)NCCOCCN3CC[C@H](NS(=O)(=O)c4ccc(O[C@H]5c6cc(Cl)cc(C#N)c6C[C@@H]5N5CCCNCC5)cc4)C3)C2)cc1 [Example 126, 4-([(1S,2S)-6-Chloro-4-cyano-2-(1,4-diazepan-1-yl)-2,3-dihydro-1H-inden-1-yl]oxy)-N—[(S)-1-(20-[(S)-3-([4-([(1S,2S)-6-chloro-4-cyano-2-(1,4-diazepan-1-yl)-2,3-dihydro-1H-inden-1-yl]oxy)phenyl]sulfonamido)pyrrolidin-1-yl]-7,14-dioxo-3,18-dioxa-6,8,13,15-tetraazaicosyl)pyrrolidin-3-yl]benzenesulfonamide] | 100 to 130 | 100 to 130 |
| Cc1cc(S(=O)(=O)NCCOCCOCCNC(=O)NCCCCNC(=O)NCCOCCOCCNS(=O)(=O)c2ccc(O[C@H]3c4cc(Cl)cc(C)c4C[C@@H]3N(C)C)c(C)c2)ccc1O[C@H]1c2cc(Cl)cc(C)c2C[C@@H]1N(C)C [Example 17, 3-[2-(2-[2-[(4-[[(1S,2S)-6-Chloro-2-(dimethylamino)-4-methyl-2,3-dihydro-1H-inden-1-yl]oxy]-3-methylbenzene)sulfonamido]ethoxy]ethoxy)ethyl]-1-[4-([[2-(2-[2-[(4-[[(1S,2S)-6-chloro-2-(dimethylamino)-4-methyl-2,3-dihydro-1H-inden-1-yl]oxy]-3-methylbenzene)sulfonamido]ethoxy]ethoxy)ethyl]carbamoyl]amino)butyl]urea] | 100 to 130 | 100 to 130 |
| O=C(NCCCCNC(=O)NCCOCCOCCNS(=O)(=O)c1ccc(O[C@H]2c3cc(Cl)cc(Cl)c3C[C@@H]2N2CCNCC2)c(F)c1)NCCOCCOCCNS(=O)(=O)c1ccc(O[C@H]2c3cc(Cl)cc(Cl)c3C[C@@H]2N2CCNCC2)c(F)c1 [Example 33, 3-[2-(2-[2-[(4-[[(1S,2S)-4,6-Dichloro-2-(piperazin-1-yl)-2,3-dihydro-1H-inden-1-yl]oxy]-3-fluorobenzene)sulfonamido]ethoxy]ethoxy)ethyl]-1-[4-[[(2-(2-[2-[(4-[[(1S,2S)-4,6-dichloro-2-(piperazin-1-yl)-2,3-dihydro-1H-inden-1-y]oxy]-3-fluorobenzene)sulfonamido]ethoxy]ethoxy)ethyl]carbamoyl]amino)butyl]urea; bis(trifluoroacetic acid)] | > 130 | 100 to 130 |
| O=C(NCCCCNC(=O)NCCOCCOCCNS(=O)(=O)c1ccc(O[C@H]2c3cc(Cl)cc(Cl)c3C[C@@H]2N2CCNCC2)cc1)NCCOCCOCCNS(=O)(=O)c1ccc(O[C@H]2c3cc(Cl)cc(Cl)c3C[C@@H]2N2CCNCC2)cc1 [Example 31, 3-[2-(2-[2-[(4-[[(1S,2S)-4,6-Dichloro-2-(piperazin-1-yl)-2,3-dihydro-1H-inden-1-yl]oxy]benzene)sulfonamido]ethoxy]ethoxy)ethyl]-1-[4-([[2-(2-[2-[(4-[[(1S,2S)-4,6-dichloro-2-(piperazin-1-yl)-2,3-dihydro-1H-inden-1-yl]oxy]benzene)sulfonamido]ethoxy]ethoxy)ethyl]carbamoyl]amino)butyl]urea; bis(trifluoroacetic acid)] | > 130 | 100 to 130 |
| N#Cc1cc(Cl)cc2c1C[C@H](N1CCNCC1)[C@H]2Oc1ccc(S(=O)(=O)N[C@H]2CCN(CCOCCNC(=O)NCCCCNC(=O)NCCOCCN3CC[C@H](NS(=O)(=O)c4ccc(O[C@H]5c6cc(Cl)cc(C#N)c6C[C@@H]5N5CCNCC5)c(F)c4)C3)C2)cc1F [Example 110, 4-([(1S,2S)-6-Chloro-4-cyano-2-(piperazin-1-yl)-2,3-dihydro-1H-inden-1-yl]oxy)-N—[(S)-1-(20-[(S)-3-[(4-([(1S,2S)-6-chloro-4-cyano-2-(piperazin-1-yl)-2,3-dihydro-1H-inden-1-yl]oxy)-3-fluorophenyl)sulfonamide)pyrrolidin-1-yl]-7,14-dioxo-3,18-dioxa-6,8,13,15-tetraazaicosyl)pyrrolidin-3-yl]-3-fluorobenzenesulfonamide; tetra(trifluoroacetate)] | 100 to 130 | > 130 |
